Reference: the supplement of paper PMC10307832

Columns and labels:
Assay in all cases: relative viability (nuclei count vs DMSO), 5 days (fraction); higher = more cells survive
Alpelisib + Pemetrexed = compound: Cc1nc(NC(=O)N2CCC[C@H]2C(N)=O)sc1-c1ccnc(C(C)(C)C(F)(F)F)c1 [Alpelisib] + Nc1nc2[nH]cc(CCc3ccc(C(=O)N[C@@H](CCC(=O)O)C(=O)O)cc3)c2c(=O)[nH]1 [Pemetrexed] (partner 0.2 µM)
Method in brief: (§1)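 Each reported value is a median over duplicate plates. It expresses relative viability: treated-well nuclei count divided by vehicle-well nuclei count. Lung cancer cell lines in 1536-well plates were dosed by pin tool a day after seeding, alone with one drug or with a fixed anchor-drug dose plus five library-drug doses (not always all listed) in √10 steps, and nuclei were counted after 5 days.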

Alpelisib + Trametinib = compound: Cc1nc(NC(=O)N2CCC[C@H]2C(N)=O)sc1-c1ccnc(C(C)(C)C(F)(F)F)c1 [Alpelisib] + CC(=O)Nc1cccc(-n2c(=O)n(C3CC3)c(=O)c3c(Nc4ccc(I)cc4F)n(C)c(=O)c(C)c32)c1 [Trametinib] (partner 0.02 µM)
Method in brief: as §1

OSI-027 + Tozasertib = compound: COc1cccc2cc(-c3nc([C@H]4CC[C@H](C(=O)O)CC4)n4ncnc(N)c34)[nH]c12 [OSI-027] + Cc1cc(Nc2cc(N3CCN(C)CC3)nc(Sc3ccc(NC(=O)C4CC4)cc3)n2)n[nH]1 [Tozasertib] (partner 0.1 µM)
Method in brief: as §1

OSI-027 + Alpelisib = compound: COc1cccc2cc(-c3nc([C@H]4CC[C@H](C(=O)O)CC4)n4ncnc(N)c34)[nH]c12 [OSI-027] + Cc1nc(NC(=O)N2CCC[C@H]2C(N)=O)sc1-c1ccnc(C(C)(C)C(F)(F)F)c1 [Alpelisib] (partner 2 µM)
Method in brief: as §1

Work on UMC-11 yielded a relative viability (Alpelisib + Pemetrexed; first compound 0.04 µM) of 0.732, a relative viability (Alpelisib + Pemetrexed; first compound 0.1265 µM) of 0.709 and a relative viability (Alpelisib + Pemetrexed; first compound 0.4 µM) of 0.844. The relative viability (Alpelisib + Pemetrexed; first compound 1.265 µM) was 0.699, the relative viability (Alpelisib + Pemetrexed; first compound 4 µM) was 0.692 and the relative viability (Alpelisib + Trametinib; first compound 0.04 µM) was 0.696. The relative viability (Alpelisib + Trametinib; first compound 0.1265 µM) was 0.628, the relative viability (Alpelisib + Trametinib; first compound 0.4 µM) was 0.875 and the relative viability (Alpelisib + Trametinib; first compound 1.265 µM) was 0.67. The relative viability (Alpelisib + Trametinib; first compound 4 µM) was 0.68, the relative viability (OSI-027 + Tozasertib; first compound 0.01 µM) was 0.235 and the relative viability (OSI-027 + Tozasertib; first compound 0.03162 µM) was 0.208. The relative viability (OSI-027 + Tozasertib; first compound 0.1 µM) was 0.203, the relative viability (OSI-027 + Tozasertib; first compound 0.3162 µM) was 0.204 and the relative viability (OSI-027 + Tozasertib; first compound 1 µM) was 0.2. For the same cell line, the relative viability (OSI-027 + Alpelisib; first compound 0.01 µM) was 1.09, the relative viability (OSI-027 + Alpelisib; first compound 0.03162 µM) was 0.818 and the relative viability (OSI-027 + Alpelisib; first compound 0.1 µM) was 0.881. The relative viability (OSI-027 + Alpelisib; first compound 0.3162 µM) was 0.597 and the relative viability (OSI-027 + Alpelisib; first compound 1 µM) was 0.49.
